{
  "source": "PubChem BioAssay AID328",
  "about": "(DTP/NCI, 2004)",
  "system": "BDF1 mice, P388 leukemia ip, median survival T/C",
  "experiment": "NCI In Vivo Anticancer Drug Screen. Data for tumor model P388 Leukemia (intraperitoneal) in B6D2F1 (BDF1) mice",
  "settings": "endpoint: median survival time, higher = longer survival",
  "in_short": "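T/C = treated-group survival ÷ vehicle-control survival; tumour transplanted into mice before dosing.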",
  "key": {"[1]": {"settings": "dose: 6.25 mg/kg/injection, schedule: Q01DX009 (ip), vehicle: saline"}, "[2]": {"settings": "dose: 12.5 mg/kg/injection, schedule: Q01DX009 (ip), vehicle: saline"}, "[3]": {"settings": "dose: 50.0 mg/kg/injection, schedule: Q04DX003 (ip), vehicle: saline"}, "[4]": {"settings": "dose: 100.0 mg/kg/injection, schedule: Q04DX003 (ip), vehicle: Klucel (hydroxypropylcellulose) (HPC)"}, "[5]": {"settings": "dose: 200.0 mg/kg/injection, schedule: Q04DX003 (ip), vehicle: Klucel (hydroxypropylcellulose) (HPC)"}, "[6]": {"settings": "dose: 400.0 mg/kg/injection, schedule: Q04DX003 (ip), vehicle: Klucel (hydroxypropylcellulose) (HPC)"}, "[7]": {"settings": "dose: 100.0 mg/kg/injection, schedule: Q01DX009 (ip), vehicle: Klucel (hydroxypropylcellulose) (HPC)"}, "[8]": {"settings": "dose: 200.0 mg/kg/injection, schedule: Q01DX009 (ip), vehicle: Klucel (hydroxypropylcellulose) (HPC)"}, "[9]": {"settings": "dose: 400.0 mg/kg/injection, schedule: Q01DX009 (ip), vehicle: Klucel (hydroxypropylcellulose) (HPC)"}, "[10]": {"settings": "dose: 100.0 mg/kg/injection, schedule: Q04DX003 (ip), vehicle: saline with Tween-80"}, "[11]": {"settings": "dose: 200.0 mg/kg/injection, schedule: Q04DX003 (ip), vehicle: saline with Tween-80"}, "[12]": {"settings": "dose: 400.0 mg/kg/injection, schedule: Q04DX003 (ip), vehicle: saline with Tween-80"}},
  "note": "Where “and” joins values, the source holds several entries; their conditions need not be identical. Identical values can stand only once. Inconclusive results and toxic doses are left out. Non-standard residues stand in square brackets, D forms with d. Residues, ends and D or L forms follow the SMILES beside them. Ac5c = NC1(C(=O)O)CCCC1",
  "data": [
    {"smiles": "O=C(O)C(=O)O.O=C([O-])C(=O)O.O=C([O-])C(=O)O.O=C([O-])C(=O)[O-].[K+].[U]", "values": [
      {"measurement": "T/C", "setting": "dose: 1.02 mg/kg/injection, schedule: Q01DX009 (ip), vehicle: saline", "result": "90 % of control"},
      {"measurement": "T/C", "setting": "dose: 1.56 mg/kg/injection, schedule: Q01DX009 (ip), vehicle: saline", "result": "91 % of control"},
      {"measurement": "T/C", "setting": "dose: 2.34 mg/kg/injection, schedule: Q01DX009 (ip), vehicle: saline", "result": "95 % of control"},
      {"measurement": "T/C", "setting": "[1]", "result": "95 % of control"},
      {"measurement": "T/C", "setting": "dose: 6.25 mg/kg/injection, schedule: Q04DX003 (ip), vehicle: saline", "result": "90 % of control"},
      {"measurement": "T/C", "setting": "[2]", "result": "100 % of control"},
      {"measurement": "T/C", "setting": "[3]", "result": "86 % of control"}
    ]},
    {"smiles": "CCOC(=O)/C(C#N)=C/c1c(-c2ccccc2)nn2ccccc12", "values": [
      {"measurement": "T/C", "setting": "dose: 50.0 mg/kg/injection, schedule: Q01DX009 (ip), vehicle: saline with Tween-80", "result": "96 % of control"},
      {"measurement": "T/C", "setting": "dose: 100.0 mg/kg/injection, schedule: Q01DX009 (ip), vehicle: saline with Tween-80", "result": "91 % of control"}
    ]},
    {"smiles": "NCC(=O)NC1(C(=O)O)CCCC1", "note": "(H-Gly-[Ac5c]-OH)", "values": [
      {"measurement": "T/C", "setting": "dose: 100.0 mg/kg/injection, schedule: Q01DX009 (ip), vehicle: saline", "result": "113 % of control"},
      {"measurement": "T/C", "setting": "dose: 200.0 mg/kg/injection, schedule: Q01DX009 (ip), vehicle: saline", "result": "90 % of control"}
    ]},
    {"smiles": "C[C@]1(O)CC[C@H]2[C@@H]3CCC4=CC(=O)CC[C@]4(C)[C@@]3(F)[C@@H](O)C[C@@]21C", "values": [
      {"measurement": "T/C", "setting": "[4]", "result": "100 % of control"},
      {"measurement": "T/C", "setting": "[5]", "result": "95 % of control"},
      {"measurement": "T/C", "setting": "[6]", "result": "95 % of control"}
    ]},
    {"smiles": "OCC1OC(n2cnc3c(SCc4ccccc4)nc(NO)nc32)C(O)C1O", "note": "(configuration not stated)", "values": [
      {"measurement": "T/C", "setting": "dose: 200.0 mg/kg/injection, schedule: Q01DX009 (ip), vehicle: acetone", "result": "100 % of control"}
    ]},
    {"smiles": "Cc1c([N+](=O)[O-])c(C)c([N+](=O)[O-])c(C(C)(C)C)c1[N+](=O)[O-]", "values": [
      {"measurement": "T/C", "setting": "[7]", "result": "100 % of control"},
      {"measurement": "T/C", "setting": "[4]", "result": "87 % of control"},
      {"measurement": "T/C", "setting": "[8]", "result": "87 % of control"},
      {"measurement": "T/C", "setting": "[5]", "result": "87 % of control"},
      {"measurement": "T/C", "setting": "[9]", "result": "95 % of control"},
      {"measurement": "T/C", "setting": "[6]", "result": "91 % of control"}
    ]},
    {"smiles": "C=CCN(CC=C)P(=O)(N1CC1C)N1CC1C", "note": "(configuration not stated)", "values": [
      {"measurement": "T/C", "setting": "dose: 0.2 mg/kg/injection, schedule: Q01DX009 (ip), vehicle: saline", "result": "101 % of control"},
      {"measurement": "T/C", "setting": "dose: 0.4 mg/kg/injection, schedule: Q01DX009 (ip), vehicle: saline", "result": "106 % of control"}
    ]},
    {"smiles": "CCOc1ccccc1CC(=O)O", "values": [
      {"measurement": "T/C", "setting": "[10]", "result": "100 % of control"},
      {"measurement": "T/C", "setting": "[11]", "result": "100 % of control"},
      {"measurement": "T/C", "setting": "[12]", "result": "104 % of control"}
    ]},
    {"smiles": "CCOC(=O)C[P+](c1ccccc1)(c1ccccc1)c1ccccc1", "values": [
      {"measurement": "T/C", "setting": "dose: 12.5 mg/kg/injection, schedule: Q04DX003 (ip), vehicle: saline", "result": "102 % of control"},
      {"measurement": "T/C", "setting": "dose: 25.0 mg/kg/injection, schedule: Q04DX003 (ip), vehicle: saline", "result": "102 % of control"},
      {"measurement": "T/C", "setting": "[3]", "result": "96 % of control"}
    ]},
    {"smiles": "Cc1ccc(NS(=O)(=O)c2ccc([N+](=O)[O-])cc2)c(C)c1", "values": [
      {"measurement": "T/C", "setting": "[10]", "result": "100 % of control"},
      {"measurement": "T/C", "setting": "[11]", "result": "104 % of control"},
      {"measurement": "T/C", "setting": "[12]", "result": "104 % of control"}
    ]},
    {"smiles": "C1CN(P2(N3CC3)=NP(N3CC3)(N3CC3)=NP(N3CC3)(N3CC3)=N2)CCO1", "note": "(configuration not stated)", "values": [
      {"measurement": "T/C", "setting": "[1]", "result": "167 % of control and 195 % of control"},
      {"measurement": "T/C", "setting": "[2]", "result": "227 % of control and 200 % of control"},
      {"measurement": "T/C", "setting": "dose: 25.0 mg/kg/injection, schedule: Q01DX009 (ip), vehicle: saline", "result": "260 % of control and 155 % of control"}
    ]},
    {"smiles": "O=[N+]([O-])c1cccc2c([N+](=O)[O-])cccc12", "values": [
      {"measurement": "T/C", "setting": "dose: 100.0 mg/kg/injection, schedule: Q01DX001 (ip), vehicle: saline sonified", "result": "95 % of control"},
      {"measurement": "T/C", "setting": "dose: 200.0 mg/kg/injection, schedule: Q01DX001 (ip), vehicle: saline sonified", "result": "100 % of control"},
      {"measurement": "T/C", "setting": "dose: 400.0 mg/kg/injection, schedule: Q01DX001 (ip), vehicle: saline sonified", "result": "115 % of control"}
    ]},
    {"smiles": "O=C1c2ccccc2S(=O)(=O)N1CCN1C(=O)c2ccccc2S1(=O)=O", "values": [
      {"measurement": "T/C", "setting": "[7]", "result": "100 % of control"},
      {"measurement": "T/C", "setting": "[4]", "result": "95 % of control"},
      {"measurement": "T/C", "setting": "[8]", "result": "100 % of control"},
      {"measurement": "T/C", "setting": "[5]", "result": "100 % of control"},
      {"measurement": "T/C", "setting": "[9]", "result": "90 % of control"},
      {"measurement": "T/C", "setting": "[6]", "result": "100 % of control"}
    ]},
    {"smiles": "C=CCN(CC=C)C(=O)CCN1CC1", "values": [
      {"measurement": "T/C", "setting": "dose: 1.25 mg/kg/injection, schedule: Q01DX009 (ip), vehicle: saline", "result": "95 % of control"},
      {"measurement": "T/C", "setting": "dose: 2.5 mg/kg/injection, schedule: Q01DX009 (ip), vehicle: saline", "result": "100 % of control"},
      {"measurement": "T/C", "setting": "dose: 5.0 mg/kg/injection, schedule: Q01DX009 (ip), vehicle: saline", "result": "112 % of control"}
    ]}
  ]
}
